These results are taken from patent US8193377B2, “(−)-epigallocatechin gallate derivatives for inhibiting proteasome” (The Hong Kong Polytechnic University, priority 2004, dated 2012).

Broadly, the inhibition is the relative decrease from the control value, in per cent. Usually IC50 stands for the midpoint of a concentration-inhibition curve. As usually defined, the pIC50 is the negative decadic logarithm of the IC50, by convention in mol/L.

pIC50: −log10 of the molar value. Where two headings read alike, the source gives them in different places. Some results are limits rather than exact numbers.

The test system of data set [1] is VA-13 cells. Nature of the data set: Nuclear staining (Hoechst) for apoptotic morphology, VA-13. The class given is cell-based, human. To be noted: 25 μM. Here is the method:
After each drug treatment, both detached and attached VA-13 and WI-38 cells were stained Hoechst 33342 to assess for apoptosis. Briefly, cells were washed 2× in PBS, fixed for 1 h with 70% ethanol at 4° C., washed 3× in PBS, and stained with […] Hoechst for 30 min in the dark at room temperature. Detached cells were plated on a slide and attached cells were visualized on the plate with a fluorescent microscope at 10× or 40× resolution (Zeiss, Germany). Digital Scientific obtained images with AxioVision 4.1 and adjusted using Adobe Photoshop 6.0.
Next, apoptotic nuclear morphology is examined after treatment with natural (−)-EGCG, 2, and 2a (FIG. 12B). […] A comparison among all the protected analogs was then performed using 25 μM for 24 h. […] All of the protected analogs induced apoptosis in transformed (VA-13), but not normal (WI-38) cells (FIGS. 12B and 12C).

Data set [2] concerns the target T1, purified rabbit 20s proteasome (Oryctolagus cuniculus, UniProt G1T4Q9).
T1 construct: purchased Boston Biochem (Cambridge, Mass.)
T1 sequence (G1T4Q9 1-263): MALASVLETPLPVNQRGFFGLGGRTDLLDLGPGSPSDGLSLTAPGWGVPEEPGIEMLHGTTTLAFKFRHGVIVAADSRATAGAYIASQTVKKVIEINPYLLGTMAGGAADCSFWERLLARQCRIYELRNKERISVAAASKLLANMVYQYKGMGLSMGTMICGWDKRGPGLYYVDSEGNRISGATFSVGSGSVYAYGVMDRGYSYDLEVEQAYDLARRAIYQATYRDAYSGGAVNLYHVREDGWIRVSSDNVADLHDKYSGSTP
The data set is described as follows: Inhibition of chymotrypsin-like activity of purified 20S proteasome. The conditions noted are these: for IC50: Suc-Leu-Leu-Val-Tyr-AMC, 2 h incubation, Table 1, read-out: IC50 (μM), unprotected. The class given is biochemical. Here is the method:
Measurement of the chyrnotrypsin-like activity of the 20s proteasome was performed by incubating 0.5 μg of purified rabbit 20s proteasome with 40 μM fluorogenic peptide substrate, Suc-Leu-Leu-Val-Tyr-AMC, with or without various concentrations of natural and synthetic tea polyphenols as described previously (Nam S et. al.).
In order to test this hypothesis, proteasome activity was tested both in vitro and in intact Jurkat T cells with either 1 or (−)-EGCG (as a positive control). First, 1 and commercial (−)-EGCG were dissolved in DMSO and their effects on the chymotrypsin-like activity of purified 20S proteasomes were measured. […] In contrast, (−)-EGCG at 10 μM inhibited 80-90% of the proteasomal chymotrypsin-like activity. Therefore, as predicted, 1 outside of a cellular system is not a proteasome inhibitor.
Up to 25 μM of all protected and unprotected compounds were incubated with a purified 20s proteasome and a fluorogenic substrate for chyrnotrypsin activity for 30 min. The half-maximal inhibitory concentration or IC50 was then determined. […] This is consistent with the results above.

Data set [3] concerns LNCaP cells. Nature of the data set: Apoptotic morphological changes, phase contrast. The class given is cell-based, human. To be noted: 25 μM, 24 h.
In data set [4] the test system is LNCaP cells. Nature of the data set: Soft agar colony formation assay. The conditions noted are these: 25 μM once at plating, 21 days. In kind it is cell-based, human.
Data set [5] has as its system Jurkat T cells. Nature of the data set: Trypan blue cell death assay in Jurkat T cells. In kind it is cell-based, human. The conditions noted are these: 10 μM, 24 h.
The subject of data set [6] is phosphorylated Akt (p-Akt). The data set is described as follows: Western blot for phosphorylated Akt in Jurkat T cells. In kind it is cell-based, human. The conditions noted are these: 25 μM, 24 h. Here is the method: (−)-EGCG and 1 were incubated with Jurkat T cells for 24 h at 5, 10 and 25 μM, followed by Western blot analysis using a specific antibody to phosphorylated Akt (FIG. 7). […] Actin was used as a loading control.
Background: In western blotting, separated proteins are transferred to a membrane and probed.

The subject of data set [7] is YT cells. Nature of the data set: Western blot in non-transformed natural killer YT cells compared with Jurkat T cells. In kind it is cell-based, human. The conditions noted are these: 25 μM, 24 h.
Data set [8] has as its target 20S prokaryotic proteasome (UniProt Q9P992). The data set is described as follows: Table 2: effects of tea polyphenols on 20S prokaryotic proteasome activities. In kind it is biochemical. To be noted: Table 2, This work. Here is the method: To further examine the effects of B-ring —OH group deletion on proteasome-inhibitory and cell death-inducing abilities, we synthesized several novel EGCG analogs with eliminated —OH groups on the B-ring as well as their putative prodrugs, the peracetate-protected counterparts. By using a purified 20S proteasome and a chymotrypsin-like fluorogenic substrate, the proteasome-inhibitory effects of the following unprotected polyphenol analogs are determined: […]

A short description of data set [9]: Stability test in RPMI 1640 culture medium, HPLC. The conditions noted are these: 0.1 mM in RPMI, 37° C., pH around 8.
Method: The stability of 1 with (−)-EGCG in a culture medium (RMPI) is compared, which mimics the body fluid with a pH value around 8. (−)-EGCG or 1 at 0.1 mM was incubated in 1 mL RMPI at 37° C. at indicated times. At different time points, the medium was analyzed by HPLC for the amount of tested compound remaining.
Data set [10] concerns the target T2, proteasomal chymotrypsin-like activity in Jurkat T cells (Homo sapiens, UniProt P28074).
T2 construct: measurement of the proteasomal chymotrypsin-like activity in the prepared lysates; endogenous in cells; host or cells: Jurkat T cells (human leukemia)
T2 sequence (P28074 60-263): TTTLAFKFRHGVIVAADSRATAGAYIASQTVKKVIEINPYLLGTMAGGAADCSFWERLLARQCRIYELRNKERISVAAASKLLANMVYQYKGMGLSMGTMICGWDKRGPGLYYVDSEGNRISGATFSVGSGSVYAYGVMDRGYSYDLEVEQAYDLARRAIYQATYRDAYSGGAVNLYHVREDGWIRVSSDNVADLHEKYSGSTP
The data set is described as follows: Proteasomal chymotrypsin-like activity in intact Jurkat T cells / their lysates. The class given is cell-based. The conditions noted are these: 24 h, Jurkat T. The method, then:
VA-13 or WI-38 cells were grown in 24 well plates (2 ml/well) to 70-80% confluency, followed by 24 h treatment with […] (−)-EGCG, 2, or 2a. […] Suc-Leu-Leu-Val-Tyr-AMC substrate was then added for 2.5 h at 37° C. and the chyrnotrypsin-like activity was measured as described above. Alternatively, cells were treated with each compound at 25 μM for 4 or 24 h, and harvested and lysed. Suc-Leu-Leu-Val-Tyr-AMC (40 μM) was then incubated with the prepared cell lysates for 2.5 h and the chymotrypsin-like activity was measured as described above.
If 1 converts to (−)-EGCG inside the cells, proteasome inhibition in vivo should be detected. To examine this possibility, human Jurkat cells was treated with 25 μM of 1 or (−)-EGCG for 12 or 24 h, followed by measurement of proteasome activity by using a chymotrypsin-like specific fluorogenic substrate in intact cells (FIG. 6a) or Western blot for ubiquinated proteins (FIG. 6b). […] To analyze the intracellular level of polyubiquitinated proteins, cells were lysed after 12 hours incubation and subjected to Western blotting. […] It is possible that the amount of EGCG generated from 1, and thus its biological activity inside the cells depends on a combination of factors: the relative permeability of 1 into the cells, the amount of esterase enzymes and the amount of anti-oxidants that may be present in the cells at any time.
To determine whether the unprotected and protected polyphenol analogs could inhibit the proteasomal activity in intact cells, leukemia Jurkat T cells were treated with each compound at 25 μM for 4 and 24 h, followed by collection of cell pellets and measurement of the proteasomal chymotrypsin-like activity in the prepared lysates.

For data set [11] the following is noted: rats given 56 mg orally; cited from earlier work.
Data set [12] deals with caspase-3 activity in Jurkat T cells. Nature of the data set: Induction of caspase-3 activity (Ac-DEVD-AMC) in Jurkat T cells. The class given is cell-based, human. To be noted: 25 μM, 4 h. Here is the method:
Cells were treated with each compound at 25 μM for 4 or 24 h, and then harvested and lysed. Ac-DEVD-AMC (40 μM) was added to the cell lysates for 2.5 h and the caspase-3 activity.
To determine if the cell death observed (FIG. 16) was due to the induction of apoptosis, a similar experiment was performed in Jurkat T cells, followed by measurement of caspase-3 activation and PARP cleavage.

20S prokaryotic proteasome, sequence (Q9P992 whole entry): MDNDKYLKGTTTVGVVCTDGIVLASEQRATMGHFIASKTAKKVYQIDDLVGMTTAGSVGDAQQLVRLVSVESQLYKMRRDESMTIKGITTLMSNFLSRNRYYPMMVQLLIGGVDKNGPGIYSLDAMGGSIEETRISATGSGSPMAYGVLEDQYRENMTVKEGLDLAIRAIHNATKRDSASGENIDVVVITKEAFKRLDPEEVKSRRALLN

As for `O=C(O[C@@H]1Cc2c(O)cc(O)cc2O[C@@H]1c1cc(O)c(O)c(O)c1)c1cc(O)c(O)c(O)c1` [(−)-EGCG, (−)-epigallocatechin-3-gallate, reference compound], the apoptotic nuclear morphology result in data set [1] (24 h) is on record as “little or no apoptosis”; in [1] (36 h) it was “did initiate apoptosis”. In addition, the inhibition at 10 µM in data set [2] (10 μM, purified 20S proteasome, read-out: inhibition of proteasomal chymotrypsin-like activity) was in the range of 80 to 90%. For the same compound, the IC50 in data set [2] came to 0.3 µM. The pIC50 in data set [2] (up to 25 μM, 30 min incubation, read-out: IC50) was 6.70; in [8], 6.52. Further, the apoptotic morphological changes result in data set [3] is “enlarged, flattened cells”. Moreover, in data set [4], the “colony formation in soft agar” value was “significant decrease in colony formation”. In addition, the cell death in data set [5] was found to be 5%. Besides, the “reduction of p-Akt level (densitometry)” value in data set [6] worked out at 32%. Besides, the “apoptosis (PARP cleavage), Jurkat T versus YT cells” value in data set [7] is “only Jurkat cells underwent apoptosis”. Also, the “time within which compound degraded in culture medium” value in data set [9] is at most 20 min. Moreover, the inhibition at 25 µM in data set [10] (Jurkat, read-out: inhibition of proteasome activity in intact cells) stood at 31%. Besides, the “fraction of (−)-EGCG absorbed” value in data set [11] is recorded as 0.012%.

In the case of `O=C(O[C@@H]1Cc2c(O)cc(O)cc2O[C@@H]1c1ccc(O)cc1)c1cc(O)c(O)c(O)c1` [Compound 6, (−)-(2R,3R)-5,7-dihydroxy-2-(4-hydroxyphenyl)chroman-3-yl 3,4,5-trihydroxybenzoate], the IC50 in data set [2] turned out to be 2.69 µM. The pIC50 in [8] was 5.57. In addition, the “increase in caspase-3 activity” value in [12] amounted to 4 fold. In addition, the “inhibition of chymotrypsin-like activity in lysates of treated cells” value in [10] (25 μM) was determined as 30%.
